# From paper PMC9230201, “Sustained Consumption of a Decaffeinated Green Coffee Nutraceutical Has Limited Effects on Phenolic Metabolism and Bioavailability in Overweight/Obese Subjects” (Nutrients, 2022)
# Assays:
# [1] = Plasma pharmacokinetics of phenolic metabolites after intake of the GCPE nutraceutical (LC-MS-QToF); details: human, oral; for AUC(0-t) / Tmax: 300 mg hydroxycinnamic acids; for AUC(0-t): AUC0–24h; for Tmax: Tmax (h) or Range; for Cmax: 300 mg, mean ± SEM, n = 9
# Experimental: Participants attended the Human Nutrition Unit (HNU) at the Institute of Food Science, Technology and Nutrition (ICTAN-CSIC) on two consecutive days at the beginning of the intervention (week 0) and also on two consecutive days at the end of the study, after consuming daily two doses of the GCPE nutraceutical, providing 600 mg/d phenols, during two months (week 8). On each occasion, on the first visit day (Figure 1), subjects arrived at the HNU after an overnight (12 h) fast and provided a urine sample. A licensed health care professional placed an intravenous catheter in the subjects′ nondominant arm and collected a fasting blood sample (baseline, 0 h). Then, subjects drank the soluble GCPE nutraceutical dissolved in 200 mL of water. Subsequently, blood samples were collected in EDTA-coated tubes at 0.5, 1, 1.5, 2, 3, 4, 6, 8, 10, and 11 h. On the sampling days, volunteers remained at the HNU, where a (poly)phenol-free diet was provided. Half an hour after consuming the nutraceutical, volunteers ate a breakfast consisting of ham, cheese, white bread, and a yogurt. Lunch (paella, bread, and yogurt) and an afternoon snack (muffin and yogurt) were eaten 5 and 9 h, respectively, after consuming the nutraceutical. Water and isotonic beverages were freely available. Volunteers were instructed to eat a (poly)phenol-free dinner that night and to attend the HNU on the next day after a 12 h fast. Then, a final blood sample was obtained from the antecubital vein 24 h after consuming the nutraceutical. The same protocol was followed during visits at the end of the 8-week intervention. On each occasion, two days before each visit to the HNU, subjects consumed a low (poly)phenol diet free of foods containing hydroxycinnamates such as coffee, herbal teas, red wine, artichokes, whole grain cereals, vegetables, fruits and fruit juices, and dried fruits. Only banana, watermelon, cantaloupes, and potatoes were allowed.
# (§1) Blood samples were immediately centrifuged (10 min, 3000 rpm, 4 °C) to obtain plasma. […] All biological samples were stored at −80 °C until analysis.
# To extract plasma metabolites, 10 µL of 50% (v/v) aqueous formic acid, and 900 µL cold acetonitrile containing 50 µL of 10% (w/v) ascorbic acid were added to 400 µL defrosted plasma. Samples were vortexed and centrifuged (14,000 rpm, 10 min, 4 °C), repeating the extraction and combining the two supernatants, which were reduced to dryness under nitrogen [13]. Dried samples were resuspended in 150 µL of 0.1% aqueous formic acid (containing 10% acetonitrile acidified with 0.1% formic acid), centrifuged (15 min, 14,000 rpm, 4 °C), and the supernatant collected.
# A reverse-phase Ascentis Express C18 (15 cm × 3 mm, 2.7 µm) column (Sigma-Aldrich Quimica, Madrid, Spain), preceded by a Supelco 55215-U guard column (3 mm × 5 mm, 2.7 µm), was used for separation. Mobile phase A was 0.1% formic acid in Milli-Q water, and mobile phase B was acetonitrile containing 0.1% formic acid at a 0.3 mL/min flow rate. […] Metabolites were identified based on their retention time using authentic standards when possible.
# [2] = Fecal excretion of phenolic metabolites after intake of the GCPE nutraceutical; details: feces
# Experimental: Participants attended the Human Nutrition Unit (HNU) at the Institute of Food Science, Technology and Nutrition (ICTAN-CSIC) on two consecutive days at the beginning of the intervention (week 0) and also on two consecutive days at the end of the study, after consuming daily two doses of the GCPE nutraceutical, providing 600 mg/d phenols, during two months (week 8). […] A licensed health care professional placed an intravenous catheter in the subjects′ nondominant arm and collected a fasting blood sample (baseline, 0 h). Then, subjects drank the soluble GCPE nutraceutical dissolved in 200 mL of water. […] On the sampling days, volunteers remained at the HNU, where a (poly)phenol-free diet was provided. Half an hour after consuming the nutraceutical, volunteers ate a breakfast consisting of ham, cheese, white bread, and a yogurt. Lunch (paella, bread, and yogurt) and an afternoon snack (muffin and yogurt) were eaten 5 and 9 h, respectively, after consuming the nutraceutical. Water and isotonic beverages were freely available. […] The same protocol was followed during visits at the end of the 8-week intervention. On each occasion, two days before each visit to the HNU, subjects consumed a low (poly)phenol diet free of foods containing hydroxycinnamates such as coffee, herbal teas, red wine, artichokes, whole grain cereals, vegetables, fruits and fruit juices, and dried fruits. Only banana, watermelon, cantaloupes, and potatoes were allowed.
# as §1
# To extract plasma metabolites, 10 µL of 50% (v/v) aqueous formic acid, and 900 µL cold acetonitrile containing 50 µL of 10% (w/v) ascorbic acid were added to 400 µL defrosted plasma. Samples were vortexed and centrifuged (14,000 rpm, 10 min, 4 °C), repeating the extraction and combining the two supernatants, which were reduced to dryness under nitrogen [13]. Dried samples were resuspended in 150 µL of 0.1% aqueous formic acid (containing 10% acetonitrile acidified with 0.1% formic acid), centrifuged (15 min, 14,000 rpm, 4 °C), and the supernatant collected. Urine samples were diluted 1:1 with Milli-Q water and centrifuged (14,000 rpm, 20 min, 4 °C) prior to analysis. Phosphate-buffered saline (3 mL) was added to a representative 300 mg sample of thawed feces, homogenized in an ultrasound bath during 10 min, centrifuged (14,000 rpm, 20 min, 4 °C), and the supernatants collected.
# Mobile phase A was 0.1% formic acid in Milli-Q water, and mobile phase B was acetonitrile containing 0.1% formic acid at a 0.3 mL/min flow rate. […] Metabolites were identified based on their retention time using authentic standards when possible. […] Urine concentration of excreted metabolites was normalized to the total volume excreted in each studied interval.
# Plasma (30 µL), urine (5 µL) and fecal extracts (5 µL) were filtered through 0.45 µm
# cellulose-acetate membrane filters and injected into an Agilent 1200 series LC system
# ESI-Jet Stream Technology (Agilent Technologies). A reverse-phase Ascentis Express
# C18 (15 cm x 3 mm, 2.7 µm) column (Sigma-Aldrich Quimica, Madrid), preceded by a
# phase A was 0.1% formic acid in Milli-Q water, and mobile phase B was acetonitrile
# containing 0.1% formic acid at a 0.3 mL/min flow rate. The gradient started with 10% B
# at 0 min, 30% B at 10 min, 40% B at 15 min, reaching 50% B at 20 min. The starting
# gradient was then re-established in 2 min and maintained for 8 min to re-equilibrate the
# [3] = Urinary excretion of phenolic metabolites after intake of the GCPE nutraceutical; details: for Urinary excretion / Cumulative urinary excretion, Total 0–24 h: urine; for Cumulative urinary excretion, Total 0–24 h: mean ± SEM, n = 9
# [4] = week 0, first peak where biphasic
# [5] = week 8, first peak where biphasic
# [6] = week 0, GCPE nutraceutical with 300 mg hydroxycinnamic acids
# [7] = week 8, GCPE nutraceutical with 300 mg hydroxycinnamic acids
Structure (SMILES),AUC(0-t) ([1]; week 0),AUC(0-t) ([1]; week 8),"Tmax [1, 4]","Tmax [1, 5]","Cmax [1, 6]","Cmax [1, 7]","Amount of fecal metabolite excreted at 0 h ([2]; week 0, mean ± SEM, n = 9)",Amount of fecal metabolite excreted at 0 h ([2]; week 8),Amount of fecal metabolite excreted at 24 h ([2]; week 0),Amount of fecal metabolite excreted at 24 h ([2]; week 8),"Cumulative urinary excretion, Total 0–24 h ([3]; week 0)","Cumulative urinary excretion, Total 0–24 h ([3]; week 8)","Amount excreted in urine, 0- 3 h ([3]; week 0, interval 0–3 h)","Amount excreted in urine, 3-6 h ([3]; week 0, interval 3–6 h)","Amount excreted in urine, 6-9 h ([3]; week 0, interval 6–9 h)","Amount excreted in urine, 9-11 h ([3]; week 0, interval 9–11 h)","Amount excreted in urine, 11-24 h ([3]; week 0, interval 11–24 h)","Amount excreted in urine, 0- 3 h ([3]; week 8, interval 0–3 h)","Amount excreted in urine, 3-6 h ([3]; week 8, interval 3–6 h)","Amount excreted in urine, 6-9 h ([3]; week 8, interval 6–9 h)",also measured
"O=C(O)CCc1ccc(O)c(O)c1 [DHCA, 3-(3′,4′-Dihydroxyphenyl)propanoic acid]",2 ± 0.6 µM·h,2.1 ± 0.5 µM·h,10.2 ± 0.3 h,9.4 ± 0.5 h,220 ± 60 nM,220 ± 50 nM,0.011 ± 0.007 µmol/g,0.005 ± 0.002 µmol/g,0.008 ± 0.006 µmol/g,0.0001 ± 0.0001 µmol/g,16 ± 2 µmol,31 ± 5 µmol,0.5 ± 0.1 µmol,0.37 ± 0.09 µmol,2.3 ± 0.8 µmol,2.7 ± 0.6 µmol,7 ± 1 µmol,1 ± 0.4 µmol,1.4 ± 0.4 µmol,3.8 ± 0.9 µmol,"Urinary excretion ([3]; week 0): 16 µmol/24 h; Urinary excretion ([3]; week 8): 31 µmol/24 h; Amount excreted in urine, TOTAL ([3]; week 0, Table S5 total): 16 ± 2 µmol; Amount excreted in urine, 0 h ([3]; week 8, 0 h (before intake on sampling day)): 15 ± 4 µmol; Amount excreted in urine, TOTAL ([3]; week 8, Table S6 total): 31 ± 5 µmol; Amount excreted in urine, 9-11 h ([3]; week 8, interval 9–11 h): 3.1 ± 0.8 µmol; Amount excreted in urine, 11-24 h ([3]; week 8, interval 11–24 h): 6 ± 2 µmol"
"COc1cc(CCC(=O)O)ccc1O [DHFA, 3-(4′-Hydroxy-3′-methoxyphenyl)propanoic acid]",2.2 ± 0.6 µM·h,1.8 ± 0.3 µM·h,7.6 ± 0.4 h,8.4 ± 0.6 h,300 ± 100 nM,250 ± 60 nM,0.013 ± 0.004 µmol/g,0.018 ± 0.003 µmol/g,0.019 ± 0.007 µmol/g,0.014 ± 0.003 µmol/g,0.5 ± 0.2 µmol,1.1 ± 0.4 µmol,0.03 ± 0.02 µmol,0.007 ± 0.007 µmol,0.08 ± 0.04 µmol,0.05 ± 0.02 µmol,0.11 ± 0.05 µmol,0.08 ± 0.07 µmol,0.03 ± 0.02 µmol,0.07 ± 0.05 µmol,"Amount excreted in urine, 9-11 h ([3]; week 8, interval 9–11 h): 0.09 ± 0.04 µmol; Amount excreted in urine, 11-24 h ([3]; week 8, interval 11–24 h): 0.07 ± 0.04 µmol"
